Common to all, as to type: cell-based, human
The test system of one test is CHLA-255-luc. As to the kind of experiment: NB luminescence growth/viability in monocyte co-culture. The following applies: 10 μg/mL etanercept. The protocol:
(FIG. 8A) Luciferase expressing CHLA-255-luc and SK-NAS-luc were cultured in 1-16,000 pg/mL rhTNF for 48 hours and viability of the cells was measured by luminescence. Data was normalized to untreated control and graphed as % Viability versus Log10 of TNF concentration.
(15A) TNFα level within co-culture supernatant was determined by TNFα ELISA. Mean TNFα concentration±SD of representative data from two monocyte donors run in triplicate. (FIG. 15B) Supernatant IL-6 levels were determined by ELISA. Mean IL-6 concentration±SD of representative data from two monocyte donors run in triplicate (FIG. 15C) Intracellular IκBα expression level within CD14+GD2− monocyte population was determined by flow cytometry and IκBα MFI was normalized to monocyte only control. Mean normalized IκBα MFI±SD and representative from experiments with two monocyte donors run in triplicate. (FIG. 15D) Intracellular IκBα expression level within CD14-GD2+NB population was determined by flow cytometry and IκBα MFI was normalized to NB only control. Mean normalized IκBαMFI±SD, representative from experiments with two monocyte donors run in triplicate. (FIG. 15E) Multiplex Luminex cytokine assay was performed on co-culture supernatants. […] NB luminescence was used to evaluate relative viability of cell line. Results are normalized mean luminescence±SD, n=6 replicates per condition. […] Cells undergoing multiple (2+) divisions were quantified as a percentage of total cells and normalized to NB (0) and Ctrl (1). […]
Monocytes were directly cultured with wild-type or TNF, TNFR1, TNFR2 KO NB cell lines in ULA plates for 24 hours. Activation of NF-kB in monocytes and NB was measured by flow cytometry and cytokine production measured by ELISA from co-culture supernatant. To evaluate the contact-dependence of monocyte activation by NB, monocytes were cultured in ULA plates with seven-day NB conditioned medium mixed 1:1 with complete monocyte medium for 24 hours and analyzed for IL-6 production. […] Luminescence was measured using a TECAN Spark plate reader (TECAN). […] CellTrace Violet expression was analyzed by flow cytometry.

Test [1] concerns NF-κB signaling in monocytes. Kind of test: Intracellular IκBα in monocyte population of co-culture (PhosFlow flow cytometry). To be noted: 10 μg/mL etanercept. The method, then:
Monocytes were directly cultured with wild-type or TNF, TNFR1, TNFR2 KO NB cell lines in ULA plates for 24 hours. Activation of NF-kB in monocytes and NB was measured by flow cytometry and cytokine production measured by ELISA from co-culture supernatant. To evaluate the contact-dependence of monocyte activation by NB, monocytes were cultured in ULA plates with seven-day NB conditioned medium mixed 1:1 with complete monocyte medium for 24 hours and analyzed for IL-6 production. To assess the growth advantage of NB cultured with monocytes, NB-luc cell lines and monocytes were seeded in tissue culture-treated white 96-well plates (1:1 ratio) and cultured for four days. Luminescence was measured using a TECAN Spark plate reader (TECAN). To evaluate changes in proliferation, NB was pulsed for 10 minutes in CellTrace Violet (2 μM, Invitrogen) and seeded at 100,000 cells per well in a 12-well tissue culture-treated plate. Monocytes were added directly to the NB monolayer at a density of 100,000 per well and incubated for four days. CellTrace Violet expression was analyzed by flow cytometry.
To evaluate the expression of TNFα in NB and monocytes, cells were first stimulated with LPS (50 ng/mL) in the presence of GolgiStop (BD Biosciences) and fixed using CytoFix/Cytoperm buffer (BD Biosciences). Cells were then stained with TNFα-PE (BD Biosciences). To evaluate the expression of TNFR1 and TNFR2 on NB and monocytes, cells were stained with TNFR1-BV421 and TNFR2-APC (BD Biosciences) in FACS staining buffer containing 0.05% sodium azide to prevent receptor/antibody processing. To estimate changes in NF-kB expression, treated co-cultures were first stained with ZombieViolet (1 μL/test, Biolegend) to counterstain dead cells and APC-H7 CD45 and/or FITC-CD14 to label monocytes for 20 minutes at room temperature. […] All flow samples were run using an LSRII 5-laser flow cytometer (Texas Children's Hospital Cancer Center Flow Cytometry Core, Houston, Tex.) and analyzed using FlowJo Software (Treestar).

A further test concerns SK-N-AS and monocytes. As to the kind of experiment: Tumorsphere cluster formation in low attachment plates. To be noted: 10 μg/mL etanercept, 24 hours, ultra low attachment plates.

As to etanercept, the “monocyte-induced proliferation above baseline (luminescence)” value with CHLA-255-luc (CHLA-255-luc + monocytes, 72 hours (FIG. 8B)) was “reduces this”. Further, the “NB luminescence (growth/viability) increase induced by monocytes” value with CHLA-255-luc (CHLA-255-luc + monocytes, 72 hours, vs IgG control (FIG. 15F)) was “completely abrogated the effect of monocytes on NB cells”. For the same substance, the “effect of monocyte-induced TNF signaling on NB cells” value in the test on CHLA-255-luc (CHLA-255-luc and SK-N-AS-luc + monocytes, 72 hours (FIG. 8B)) is “reversed the effect of monocyte-induced TNF signaling on NB cells”. Besides, the “reversal of IκBα degradation in monocytes” value in test [1] (CHLA-255 + monocytes, 24 hours (FIG. 15C)) was “complete”. The “IκBα levels in monocytes” value in test [1] (SK-N-AS + monocytes, 24 hours) is given as “increasing monocyte levels of IκBα”. The “association of NB/monocytes into tumorsphere clusters” value with SK-N-AS and monocytes was “blocking the ability of NB/monocytes to associate into tumorsphere clusters”.

For the origin of these results see patent US20230103554A1, “TNFa SIGNALING [sequence] TUMOR-PROMOTING INFLAMMATION THAT CAN BE TARGETED TO THERAPY” (Baylor College of Medicine, priority 2020, published 2023).
